Reference: ChEMBL document CHEMBL5649166, “RIP3 induces apoptosis independent of pronecrotic kinase activity” (Mol Cell, 2014)

Assays:
[1] = biological target: T1, Dual specificity protein kinase TTK (Homo sapiens) (UniProt P33981); test: Inhibition of human TTK using at 1 uM in presence of 32P-ATP by Hotspot assay relative to control; values are per cent of control
T1 sequence (whole entry): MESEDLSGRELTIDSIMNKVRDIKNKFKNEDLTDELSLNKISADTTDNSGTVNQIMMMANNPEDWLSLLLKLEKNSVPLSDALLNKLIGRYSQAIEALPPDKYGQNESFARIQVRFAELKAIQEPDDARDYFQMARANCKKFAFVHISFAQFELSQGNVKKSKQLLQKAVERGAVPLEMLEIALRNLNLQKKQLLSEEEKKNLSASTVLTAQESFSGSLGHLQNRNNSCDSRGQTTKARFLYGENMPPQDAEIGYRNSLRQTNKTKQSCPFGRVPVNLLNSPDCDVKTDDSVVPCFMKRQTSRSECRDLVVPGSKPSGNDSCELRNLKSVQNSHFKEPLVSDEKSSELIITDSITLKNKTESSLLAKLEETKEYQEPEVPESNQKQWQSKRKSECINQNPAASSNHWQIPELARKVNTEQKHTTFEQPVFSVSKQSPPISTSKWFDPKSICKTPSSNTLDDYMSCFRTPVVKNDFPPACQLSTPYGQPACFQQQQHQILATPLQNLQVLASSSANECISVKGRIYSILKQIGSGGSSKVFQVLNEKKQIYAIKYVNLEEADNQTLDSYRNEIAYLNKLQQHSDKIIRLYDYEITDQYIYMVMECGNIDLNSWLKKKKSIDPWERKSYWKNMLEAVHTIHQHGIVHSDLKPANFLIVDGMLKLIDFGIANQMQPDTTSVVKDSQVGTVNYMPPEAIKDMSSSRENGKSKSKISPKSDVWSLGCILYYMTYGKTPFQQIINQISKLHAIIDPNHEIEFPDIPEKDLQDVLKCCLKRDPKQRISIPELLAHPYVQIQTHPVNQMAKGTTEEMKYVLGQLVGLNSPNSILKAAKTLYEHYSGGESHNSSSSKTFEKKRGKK

[2] = biological target: Non-receptor tyrosine-protein kinase TYK2 (Homo sapiens) (UniProt P29597); test: Inhibition of human TYK2 using KKSRGDYMTMQIG as substrate at 1 uM in presence of 32P-ATP by Hotspot assay relative to control; values are per cent of control
[3] = biological target: Tyrosine-protein kinase HCK (Homo sapiens) (UniProt P08631); test: Inhibition of human HCK using KVEKIGEGTYGVVYK as substrate at 1 uM in presence of 32P-ATP by Hotspot assay relative to control; values are per cent of control
[4] = biological target: RAC-gamma serine/threonine-protein kinase (Homo sapiens) (UniProt Q9Y243); test: Inhibition of human AKT3 using KGSGSGRPRTSSFAEG as substrate at 1 uM in presence of 32P-ATP by Hotspot assay relative to control; values are per cent of control
[5] = biological target: T2, Dual specificity tyrosine-phosphorylation-regulated kinase 4 (Homo sapiens) (UniProt Q9NR20); test: Inhibition of human DYRK4 using RRRFRPASPLRGPPK as substrate at 1 uM in presence of 32P-ATP by Hotspot assay relative to control; values are per cent of control
T2 sequence (whole entry): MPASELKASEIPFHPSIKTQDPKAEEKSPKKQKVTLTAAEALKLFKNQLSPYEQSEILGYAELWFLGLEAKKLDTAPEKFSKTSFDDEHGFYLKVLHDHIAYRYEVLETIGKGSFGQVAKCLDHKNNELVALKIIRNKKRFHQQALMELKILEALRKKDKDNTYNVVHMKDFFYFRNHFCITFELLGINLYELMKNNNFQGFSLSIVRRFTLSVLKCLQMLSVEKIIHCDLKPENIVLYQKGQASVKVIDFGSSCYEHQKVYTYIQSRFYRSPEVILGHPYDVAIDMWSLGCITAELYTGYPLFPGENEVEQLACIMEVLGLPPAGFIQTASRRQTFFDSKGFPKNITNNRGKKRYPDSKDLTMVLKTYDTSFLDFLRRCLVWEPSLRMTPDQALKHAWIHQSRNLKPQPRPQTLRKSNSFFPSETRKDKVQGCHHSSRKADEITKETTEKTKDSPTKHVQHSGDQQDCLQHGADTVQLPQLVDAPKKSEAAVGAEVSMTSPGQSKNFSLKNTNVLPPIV

[6] = biological target: Protein kinase C gamma type (Homo sapiens) (UniProt P05129); test: Inhibition of human PKCg using ERMRPRKRQGSVRRRV as substrate at 1 uM in presence of 32P-ATP by Hotspot assay relative to control; values are per cent of control
[7] = biological target: Casein kinase I isoform delta (Homo sapiens) (UniProt P48730); test: Inhibition of human CK1d using KRRRAL[pS]VASLPGL as substrate at 1 uM in presence of 32P-ATP by Hotspot assay relative to control; values are per cent of control
[8] = biological target: Homeodomain-interacting protein kinase 3 (Homo sapiens) (UniProt Q9H422); test: Inhibition of human HIPK3 using myelin basic protein as substrate at 1 uM in presence of 32P-ATP by Hotspot assay relative to control; values are per cent of control
[9] = biological target: T3, Serine/threonine-protein kinase STK11 (Homo sapiens) (UniProt Q15831); test: Inhibition of human LKB1 using LSNLYHQGKFLQTFCGSPLYRRR as substrate at 1 uM in presence of 32P-ATP by Hotspot assay relative to control; values are per cent of control
T3 sequence (whole entry): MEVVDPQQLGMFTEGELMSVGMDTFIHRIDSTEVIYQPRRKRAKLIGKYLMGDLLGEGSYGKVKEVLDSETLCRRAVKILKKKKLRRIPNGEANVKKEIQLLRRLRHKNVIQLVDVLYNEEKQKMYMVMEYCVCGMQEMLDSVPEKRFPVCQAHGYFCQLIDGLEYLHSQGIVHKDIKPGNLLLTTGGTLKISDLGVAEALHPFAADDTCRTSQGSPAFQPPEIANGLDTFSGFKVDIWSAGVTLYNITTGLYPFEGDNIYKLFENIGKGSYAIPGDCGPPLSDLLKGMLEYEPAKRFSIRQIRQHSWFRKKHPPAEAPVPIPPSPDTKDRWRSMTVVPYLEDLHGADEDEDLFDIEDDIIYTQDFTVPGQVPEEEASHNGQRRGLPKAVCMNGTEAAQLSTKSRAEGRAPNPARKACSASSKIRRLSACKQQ

[10] = biological target: MAP/microtubule affinity-regulating kinase 3 (Homo sapiens) (UniProt P27448); test: Inhibition of human MARK3 using KKKVSRSGLYRSPSMPENLNRPR as substrate at 1 uM in presence of 32P-ATP by Hotspot assay relative to control; values are per cent of control
Sequence of MAP/microtubule affinity-regulating kinase 3 (Homo sapiens) (P27448 whole entry, looked up): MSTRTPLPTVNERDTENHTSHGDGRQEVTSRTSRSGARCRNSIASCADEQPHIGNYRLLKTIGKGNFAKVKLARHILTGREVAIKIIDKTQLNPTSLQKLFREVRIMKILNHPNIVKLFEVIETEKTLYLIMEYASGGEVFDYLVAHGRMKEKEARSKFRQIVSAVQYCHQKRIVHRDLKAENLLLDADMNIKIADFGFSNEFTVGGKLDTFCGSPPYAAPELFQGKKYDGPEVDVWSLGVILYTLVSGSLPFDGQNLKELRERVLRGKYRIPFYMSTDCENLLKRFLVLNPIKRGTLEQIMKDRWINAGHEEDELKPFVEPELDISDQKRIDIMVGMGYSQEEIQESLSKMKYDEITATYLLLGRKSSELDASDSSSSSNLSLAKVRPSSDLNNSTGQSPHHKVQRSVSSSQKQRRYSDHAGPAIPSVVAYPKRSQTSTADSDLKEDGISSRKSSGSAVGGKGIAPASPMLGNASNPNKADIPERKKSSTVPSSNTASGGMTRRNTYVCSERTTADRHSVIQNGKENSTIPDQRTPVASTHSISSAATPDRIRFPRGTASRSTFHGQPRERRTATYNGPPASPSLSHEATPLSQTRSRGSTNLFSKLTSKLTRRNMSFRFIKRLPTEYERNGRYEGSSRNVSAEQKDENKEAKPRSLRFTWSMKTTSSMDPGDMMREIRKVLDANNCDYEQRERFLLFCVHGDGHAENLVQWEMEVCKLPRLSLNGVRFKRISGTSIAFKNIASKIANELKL

Sequence of Homeodomain-interacting protein kinase 3 (Homo sapiens) (Q9H422 whole entry, looked up): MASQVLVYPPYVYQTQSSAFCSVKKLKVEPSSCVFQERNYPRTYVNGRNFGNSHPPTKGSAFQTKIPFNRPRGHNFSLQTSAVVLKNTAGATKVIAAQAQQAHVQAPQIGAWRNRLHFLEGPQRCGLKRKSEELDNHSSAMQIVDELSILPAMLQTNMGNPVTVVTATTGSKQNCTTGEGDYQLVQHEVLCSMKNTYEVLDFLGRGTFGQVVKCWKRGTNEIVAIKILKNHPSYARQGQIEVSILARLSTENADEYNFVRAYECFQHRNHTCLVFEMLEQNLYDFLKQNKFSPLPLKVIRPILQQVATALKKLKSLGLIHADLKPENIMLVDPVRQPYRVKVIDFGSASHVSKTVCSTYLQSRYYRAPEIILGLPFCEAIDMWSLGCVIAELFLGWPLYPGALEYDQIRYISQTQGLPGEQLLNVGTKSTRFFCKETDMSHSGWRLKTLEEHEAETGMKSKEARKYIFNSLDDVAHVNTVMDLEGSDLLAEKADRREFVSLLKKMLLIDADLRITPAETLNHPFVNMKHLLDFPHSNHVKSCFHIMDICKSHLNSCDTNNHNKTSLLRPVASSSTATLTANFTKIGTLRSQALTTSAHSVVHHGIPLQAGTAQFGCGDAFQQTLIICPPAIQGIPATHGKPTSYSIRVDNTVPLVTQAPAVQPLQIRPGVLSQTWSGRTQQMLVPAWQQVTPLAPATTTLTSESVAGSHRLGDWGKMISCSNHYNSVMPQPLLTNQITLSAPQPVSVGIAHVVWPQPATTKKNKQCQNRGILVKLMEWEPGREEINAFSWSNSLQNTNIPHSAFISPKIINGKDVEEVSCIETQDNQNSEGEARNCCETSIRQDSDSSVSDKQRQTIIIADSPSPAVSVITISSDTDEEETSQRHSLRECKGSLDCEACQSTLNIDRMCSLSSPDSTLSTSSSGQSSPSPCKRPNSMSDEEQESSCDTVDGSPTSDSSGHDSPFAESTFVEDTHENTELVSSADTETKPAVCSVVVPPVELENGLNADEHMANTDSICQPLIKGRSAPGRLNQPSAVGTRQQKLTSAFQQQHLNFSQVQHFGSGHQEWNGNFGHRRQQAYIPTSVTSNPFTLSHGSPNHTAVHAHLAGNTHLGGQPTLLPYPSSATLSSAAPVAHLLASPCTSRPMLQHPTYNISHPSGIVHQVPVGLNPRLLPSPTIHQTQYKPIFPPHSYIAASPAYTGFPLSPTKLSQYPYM
Sequence of Tyrosine-protein kinase HCK (Homo sapiens) (P08631 2-526 limits assumed): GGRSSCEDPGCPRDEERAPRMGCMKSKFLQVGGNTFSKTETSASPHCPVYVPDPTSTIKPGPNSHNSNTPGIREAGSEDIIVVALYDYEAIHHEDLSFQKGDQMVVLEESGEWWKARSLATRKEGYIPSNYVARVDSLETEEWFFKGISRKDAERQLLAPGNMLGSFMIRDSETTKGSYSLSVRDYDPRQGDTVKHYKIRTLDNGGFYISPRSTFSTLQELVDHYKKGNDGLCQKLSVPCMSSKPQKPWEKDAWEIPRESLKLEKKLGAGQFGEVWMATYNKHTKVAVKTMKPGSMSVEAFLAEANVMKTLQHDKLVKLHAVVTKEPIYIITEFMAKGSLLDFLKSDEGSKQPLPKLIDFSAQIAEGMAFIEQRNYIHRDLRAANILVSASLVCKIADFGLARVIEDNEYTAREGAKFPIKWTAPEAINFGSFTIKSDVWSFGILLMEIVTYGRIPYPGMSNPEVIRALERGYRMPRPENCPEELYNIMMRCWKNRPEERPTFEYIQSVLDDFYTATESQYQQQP
Sequence of RAC-gamma serine/threonine-protein kinase (Homo sapiens) (Q9Y243 whole entry): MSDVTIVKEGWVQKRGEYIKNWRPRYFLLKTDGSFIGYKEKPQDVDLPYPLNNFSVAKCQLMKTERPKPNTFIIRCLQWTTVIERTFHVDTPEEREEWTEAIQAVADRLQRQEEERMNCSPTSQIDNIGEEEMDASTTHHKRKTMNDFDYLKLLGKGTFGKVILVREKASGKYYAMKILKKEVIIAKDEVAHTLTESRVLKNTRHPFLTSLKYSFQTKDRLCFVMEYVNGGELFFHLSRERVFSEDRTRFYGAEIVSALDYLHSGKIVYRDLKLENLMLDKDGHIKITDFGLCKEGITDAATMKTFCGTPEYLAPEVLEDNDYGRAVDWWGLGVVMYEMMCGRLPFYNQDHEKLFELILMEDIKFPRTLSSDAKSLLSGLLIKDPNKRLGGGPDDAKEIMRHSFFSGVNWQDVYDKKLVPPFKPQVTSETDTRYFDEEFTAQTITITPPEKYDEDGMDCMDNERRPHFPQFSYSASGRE
Sequence of Non-receptor tyrosine-protein kinase TYK2 (Homo sapiens) (P29597 whole entry): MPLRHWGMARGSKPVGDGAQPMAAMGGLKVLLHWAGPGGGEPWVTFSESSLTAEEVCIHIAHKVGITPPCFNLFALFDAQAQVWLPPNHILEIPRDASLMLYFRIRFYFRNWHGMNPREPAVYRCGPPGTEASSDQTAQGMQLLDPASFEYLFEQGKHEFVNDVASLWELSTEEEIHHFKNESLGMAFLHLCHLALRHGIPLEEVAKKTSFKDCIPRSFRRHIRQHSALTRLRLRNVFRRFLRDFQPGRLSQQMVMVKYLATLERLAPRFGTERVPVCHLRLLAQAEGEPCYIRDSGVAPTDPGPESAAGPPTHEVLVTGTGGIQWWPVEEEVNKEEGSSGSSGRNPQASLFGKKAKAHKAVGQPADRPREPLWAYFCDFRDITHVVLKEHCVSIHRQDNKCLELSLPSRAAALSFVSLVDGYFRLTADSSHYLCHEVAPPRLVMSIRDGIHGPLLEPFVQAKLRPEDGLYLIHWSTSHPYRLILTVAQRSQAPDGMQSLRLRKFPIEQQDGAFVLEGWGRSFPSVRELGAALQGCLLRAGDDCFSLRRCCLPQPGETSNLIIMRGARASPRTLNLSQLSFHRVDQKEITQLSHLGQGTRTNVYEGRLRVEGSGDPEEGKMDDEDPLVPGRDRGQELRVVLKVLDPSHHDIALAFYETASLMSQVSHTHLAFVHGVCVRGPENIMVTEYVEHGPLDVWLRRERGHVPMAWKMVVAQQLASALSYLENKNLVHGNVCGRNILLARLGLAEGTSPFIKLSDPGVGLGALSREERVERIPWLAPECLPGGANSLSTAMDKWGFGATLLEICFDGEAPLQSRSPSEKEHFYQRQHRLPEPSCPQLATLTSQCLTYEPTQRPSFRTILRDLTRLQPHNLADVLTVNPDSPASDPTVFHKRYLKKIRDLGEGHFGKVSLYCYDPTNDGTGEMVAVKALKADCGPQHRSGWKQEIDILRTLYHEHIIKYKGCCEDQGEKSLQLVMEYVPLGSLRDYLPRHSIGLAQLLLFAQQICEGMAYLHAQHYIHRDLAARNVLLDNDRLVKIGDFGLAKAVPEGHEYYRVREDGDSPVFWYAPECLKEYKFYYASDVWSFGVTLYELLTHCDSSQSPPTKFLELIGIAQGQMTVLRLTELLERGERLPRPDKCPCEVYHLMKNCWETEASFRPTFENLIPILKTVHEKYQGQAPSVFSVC
Sequence of Casein kinase I isoform delta (Homo sapiens) (P48730 whole entry, looked up, canonical isoform): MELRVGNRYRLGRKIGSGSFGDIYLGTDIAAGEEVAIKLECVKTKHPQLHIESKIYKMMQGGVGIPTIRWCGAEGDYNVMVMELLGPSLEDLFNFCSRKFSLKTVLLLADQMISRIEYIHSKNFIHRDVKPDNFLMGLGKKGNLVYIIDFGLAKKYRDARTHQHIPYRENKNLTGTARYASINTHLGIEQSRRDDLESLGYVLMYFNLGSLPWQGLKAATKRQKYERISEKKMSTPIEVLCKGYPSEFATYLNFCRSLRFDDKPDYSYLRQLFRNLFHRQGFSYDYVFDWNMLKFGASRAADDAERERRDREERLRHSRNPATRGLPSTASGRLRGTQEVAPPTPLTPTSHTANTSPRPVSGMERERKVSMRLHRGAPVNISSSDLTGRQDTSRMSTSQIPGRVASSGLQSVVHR

| Compound | residual activity [1] | residual activity [2] | residual activity [3] | residual activity [4] | residual activity [5] | residual activity [6] | residual activity [7] | residual activity [8] | residual activity [9] | residual activity [10] |
| --- | --- | --- | --- | --- | --- | --- | --- | --- | --- | --- |
| CC(C)S(=O)(=O)c1ccc2nccc(Nc3ccc4scnc4c3)c2c1 | 100% | 101% | 23.1% | 94.3% | 102% | 99.4% | 104% | 104% | 59% | 106% |
| Cc1cc(-c2cnc(N)c3c(-c4ccc5scnc5c4)csc23)n(C)n1 | 101% | 99.4% | 41% | 96.1% | 98.2% | 86.6% | 84.6% | 101% | 96.8% | 98.2% |
| CNC(=O)c1ccc2c(c1)ncn2-c1ccc(CC(=O)OC(C)(C)C)cc1 | 91% | 103% | 76.1% | 98.4% | 99.6% | 85.7% | 101% | 102% | 99% | 108% |
